Measurements reported in ChEMBL document CHEMBL4393657, “Tetrazole hybrids and their antifungal activities” (2019).
Converted amounts (≈) assume the structure as drawn.

What was measured:
Type in all cases: functional
[1] = system: Pichia kudriavzevii; assay: Antifungal activity against Candida krusei assessed as reduction in fungal cell growth incubated for 48 hrs by broth microdilution method
[2] = system: Cryptococcus neoformans; assay: Antifungal activity against Cryptococcus neoformans LA314 assessed as reduction in fungal cell growth incubated for 48 hrs by broth microdilution method; details: LA314, 48 h
[3] = system: Nakaseomyces glabratus; assay: Antifungal activity against Candida glabrata assessed as reduction in fungal cell growth incubated for 48 hrs by broth microdilution method
[4] = system: Candida parapsilosis; assay: Antifungal activity against Candida parapsilosis ATCC 22019 assessed as reduction in fungal cell growth incubated for 48 hrs by broth microdilution method; details: Lodderomyces parapsilosis, ATCC 22019, 48 h
[5] = system: Aspergillus niger; assay: Antifungal activity against Aspergillus niger assessed as reduction in fungal cell growth incubated for 72 hrs by broth microdilution method
[6] = system: Candida albicans; assay: Antifungal activity against Candida albicans assessed as reduction in fungal cell growth incubated for 48 hrs by broth microdilution method
[7] = system: Candida tropicalis; assay: Antifungal activity against Candida tropicalis assessed as reduction in fungal cell growth incubated for 48 hrs by broth microdilution method

MIC [1]	MIC [2]	MIC [3]	MIC [4]	MIC [5]	MIC [6]	MIC [7]	SMILES
0.25 to 16 µg/mL (≈ 0.46 to 29.4 µM)	0.25 to 16 µg/mL (≈ 0.46 to 29.4 µM)	0.25 to 16 µg/mL (≈ 0.46 to 29.4 µM)	0.25 to 16 µg/mL (≈ 0.46 to 29.4 µM)	0.25 to 16 µg/mL (≈ 0.46 to 29.4 µM)	0.25 to 16 µg/mL (≈ 0.46 to 29.4 µM)	0.25 to 16 µg/mL (≈ 0.46 to 29.4 µM)	C[C@H](n1nnc(CCN2CCN(c3ccc(Cl)cc3)CC2)n1)[C@](O)(Cn1cncn1)c1ccc(F)cc1F
0.12 to 16 µg/mL (≈ 0.221 to 29.4 µM)	0.12 to 16 µg/mL (≈ 0.221 to 29.4 µM)	0.12 to 16 µg/mL (≈ 0.221 to 29.4 µM)	0.12 to 16 µg/mL (≈ 0.221 to 29.4 µM)	0.12 to 16 µg/mL (≈ 0.221 to 29.4 µM)	0.12 to 16 µg/mL (≈ 0.221 to 29.4 µM)	0.12 to 16 µg/mL (≈ 0.221 to 29.4 µM)	C[C@H](n1nnnc1CCN1CCN(c2ccc(Cl)cc2)CC1)[C@](O)(Cn1cncn1)c1ccc(F)cc1F
0.5 to 16 µg/mL (≈ 0.919 to 29.4 µM)	0.5 to 16 µg/mL (≈ 0.919 to 29.4 µM)	0.5 to 16 µg/mL (≈ 0.919 to 29.4 µM)	0.5 to 16 µg/mL (≈ 0.919 to 29.4 µM)	0.5 to 16 µg/mL (≈ 0.919 to 29.4 µM)	0.5 to 16 µg/mL (≈ 0.919 to 29.4 µM)	0.5 to 16 µg/mL (≈ 0.919 to 29.4 µM)	CC(n1nnnc1CCN1CCN(c2ccccc2Cl)CC1)C(O)(Cn1cncn1)c1ccc(F)cc1F (stereo unspecified)
1 to 16 µg/mL (≈ 1.95 to 31.2 µM)	1 to 16 µg/mL (≈ 1.95 to 31.2 µM)	1 to 16 µg/mL (≈ 1.95 to 31.2 µM)	1 to 16 µg/mL (≈ 1.95 to 31.2 µM)	1 to 16 µg/mL (≈ 1.95 to 31.2 µM)	1 to 16 µg/mL (≈ 1.95 to 31.2 µM)	1 to 16 µg/mL (≈ 1.95 to 31.2 µM)	OC(Cn1cncn1)(Cn1nnc(CCN2CCN(c3ccc(F)cc3)CC2)n1)c1ccc(F)cc1F (stereo unspecified)
0.5 to 16 µg/mL (≈ 0.927 to 29.7 µM)	0.5 to 16 µg/mL (≈ 0.927 to 29.7 µM)	0.5 to 16 µg/mL (≈ 0.927 to 29.7 µM)	0.5 to 16 µg/mL (≈ 0.927 to 29.7 µM)	0.5 to 16 µg/mL (≈ 0.927 to 29.7 µM)	0.5 to 16 µg/mL (≈ 0.927 to 29.7 µM)	0.5 to 16 µg/mL (≈ 0.927 to 29.7 µM)	COc1ccc(N2CCN(CCc3nnnn3C(C)C(O)(Cn3cncn3)c3ccc(F)cc3F)CC2)cc1 (stereo unspecified)
1 to 16 µg/mL (≈ 1.85 to 29.7 µM)	1 to 16 µg/mL (≈ 1.85 to 29.7 µM)	1 to 16 µg/mL (≈ 1.85 to 29.7 µM)	1 to 16 µg/mL (≈ 1.85 to 29.7 µM)	1 to 16 µg/mL (≈ 1.85 to 29.7 µM)	1 to 16 µg/mL (≈ 1.85 to 29.7 µM)	1 to 16 µg/mL (≈ 1.85 to 29.7 µM)	COc1ccc(N2CCN(CCc3nnn(C(C)C(O)(Cn4cncn4)c4ccc(F)cc4F)n3)CC2)cc1 (stereo unspecified)
0.5 to 16 µg/mL (≈ 0.943 to 30.2 µM)	0.5 to 16 µg/mL (≈ 0.943 to 30.2 µM)	0.5 to 16 µg/mL (≈ 0.943 to 30.2 µM)	0.5 to 16 µg/mL (≈ 0.943 to 30.2 µM)	0.5 to 16 µg/mL (≈ 0.943 to 30.2 µM)	0.5 to 16 µg/mL (≈ 0.943 to 30.2 µM)	0.5 to 16 µg/mL (≈ 0.943 to 30.2 µM)	OC(Cn1cncn1)(Cn1nnnc1CCN1CCN(c2cccc(Cl)c2)CC1)c1ccc(F)cc1F (stereo unspecified)
0.25 to 16 µg/mL (≈ 0.477 to 30.6 µM)	0.25 to 16 µg/mL (≈ 0.477 to 30.6 µM)	0.25 to 16 µg/mL (≈ 0.477 to 30.6 µM)	0.25 to 16 µg/mL (≈ 0.477 to 30.6 µM)	0.25 to 16 µg/mL (≈ 0.477 to 30.6 µM)	0.25 to 16 µg/mL (≈ 0.477 to 30.6 µM)	0.25 to 16 µg/mL (≈ 0.477 to 30.6 µM)	C[C@H](n1nnc(CCN2CCN(Cc3ccccc3)CC2)n1)[C@](O)(Cn1cncn1)c1ccc(F)cc1F
0.5 to 16 µg/mL (≈ 1.01 to 32.2 µM)	0.5 to 16 µg/mL (≈ 1.01 to 32.2 µM)	0.5 to 16 µg/mL (≈ 1.01 to 32.2 µM)	0.5 to 16 µg/mL (≈ 1.01 to 32.2 µM)	0.5 to 16 µg/mL (≈ 1.01 to 32.2 µM)	0.5 to 16 µg/mL (≈ 1.01 to 32.2 µM)	0.5 to 16 µg/mL (≈ 1.01 to 32.2 µM)	OC(Cn1cncn1)(Cn1nnnc1CCN1CCN(c2ccccn2)CC1)c1ccc(F)cc1F (stereo unspecified)
1 to 16 µg/mL (≈ 1.85 to 29.6 µM)	1 to 16 µg/mL (≈ 1.85 to 29.6 µM)	1 to 16 µg/mL (≈ 1.85 to 29.6 µM)	1 to 16 µg/mL (≈ 1.85 to 29.6 µM)	1 to 16 µg/mL (≈ 1.85 to 29.6 µM)	1 to 16 µg/mL (≈ 1.85 to 29.6 µM)	1 to 16 µg/mL (≈ 1.85 to 29.6 µM)	O=[N+]([O-])c1ccc(N2CCN(CCc3nnn(CC(O)(Cn4cncn4)c4ccc(F)cc4F)n3)CC2)cc1 (stereo unspecified)
0.12 to 16 µg/mL (≈ 0.2 to 26.7 µM)	0.12 to 16 µg/mL (≈ 0.2 to 26.7 µM)	0.12 to 16 µg/mL (≈ 0.2 to 26.7 µM)	0.12 to 16 µg/mL (≈ 0.2 to 26.7 µM)	0.12 to 16 µg/mL (≈ 0.2 to 26.7 µM)	0.12 to 16 µg/mL (≈ 0.2 to 26.7 µM)	0.12 to 16 µg/mL (≈ 0.2 to 26.7 µM)	C[C@H](n1nnnc1CCN1CCN(C(c2ccccc2)c2ccccc2)CC1)[C@](O)(Cn1cncn1)c1ccc(F)cc1F
0.25 to 16 µg/mL (≈ 0.463 to 29.7 µM)	0.25 to 16 µg/mL (≈ 0.463 to 29.7 µM)	0.25 to 16 µg/mL (≈ 0.463 to 29.7 µM)	0.25 to 16 µg/mL (≈ 0.463 to 29.7 µM)	0.25 to 16 µg/mL (≈ 0.463 to 29.7 µM)	0.25 to 16 µg/mL (≈ 0.463 to 29.7 µM)	0.25 to 16 µg/mL (≈ 0.463 to 29.7 µM)	COc1ccccc1N1CCN(CCc2nnn([C@@H](C)[C@](O)(Cn3cncn3)c3ccc(F)cc3F)n2)CC1
1 to 16 µg/mL (≈ 1.96 to 31.3 µM)	1 to 16 µg/mL (≈ 1.96 to 31.3 µM)	1 to 16 µg/mL (≈ 1.96 to 31.3 µM)	1 to 16 µg/mL (≈ 1.96 to 31.3 µM)	1 to 16 µg/mL (≈ 1.96 to 31.3 µM)	1 to 16 µg/mL (≈ 1.96 to 31.3 µM)	1 to 16 µg/mL (≈ 1.96 to 31.3 µM)	CC(n1nnc(CCN2CCN(c3ccccn3)CC2)n1)C(O)(Cn1cncn1)c1ccc(F)cc1F (stereo unspecified)
1 to 16 µg/mL (≈ 1.8 to 28.9 µM)	1 to 16 µg/mL (≈ 1.8 to 28.9 µM)	1 to 16 µg/mL (≈ 1.8 to 28.9 µM)	1 to 16 µg/mL (≈ 1.8 to 28.9 µM)	1 to 16 µg/mL (≈ 1.8 to 28.9 µM)	1 to 16 µg/mL (≈ 1.8 to 28.9 µM)	1 to 16 µg/mL (≈ 1.8 to 28.9 µM)	CC(n1nnc(CCN2CCN(c3ccc([N+](=O)[O-])cc3)CC2)n1)C(O)(Cn1cncn1)c1ccc(F)cc1F (stereo unspecified)
0.5 to 16 µg/mL (≈ 0.927 to 29.7 µM)	0.5 to 16 µg/mL (≈ 0.927 to 29.7 µM)	0.5 to 16 µg/mL (≈ 0.927 to 29.7 µM)	0.5 to 16 µg/mL (≈ 0.927 to 29.7 µM)	0.5 to 16 µg/mL (≈ 0.927 to 29.7 µM)	0.5 to 16 µg/mL (≈ 0.927 to 29.7 µM)	0.5 to 16 µg/mL (≈ 0.927 to 29.7 µM)	COc1ccccc1N1CCN(CCc2nnnn2C(C)C(O)(Cn2cncn2)c2ccc(F)cc2F)CC1 (stereo unspecified)
0.12 to 16 µg/mL (≈ 0.222 to 29.7 µM)	0.12 to 16 µg/mL (≈ 0.222 to 29.7 µM)	0.12 to 16 µg/mL (≈ 0.222 to 29.7 µM)	0.12 to 16 µg/mL (≈ 0.222 to 29.7 µM)	0.12 to 16 µg/mL (≈ 0.222 to 29.7 µM)	0.12 to 16 µg/mL (≈ 0.222 to 29.7 µM)	0.12 to 16 µg/mL (≈ 0.222 to 29.7 µM)	COc1ccccc1N1CCN(CCc2nnnn2[C@@H](C)[C@](O)(Cn2cncn2)c2ccc(F)cc2F)CC1
1 to 16 µg/mL (≈ 1.89 to 30.2 µM)	1 to 16 µg/mL (≈ 1.89 to 30.2 µM)	1 to 16 µg/mL (≈ 1.89 to 30.2 µM)	1 to 16 µg/mL (≈ 1.89 to 30.2 µM)	1 to 16 µg/mL (≈ 1.89 to 30.2 µM)	1 to 16 µg/mL (≈ 1.89 to 30.2 µM)	1 to 16 µg/mL (≈ 1.89 to 30.2 µM)	OC(Cn1cncn1)(Cn1nnc(CCN2CCN(c3ccc(Cl)cc3)CC2)n1)c1ccc(F)cc1F (stereo unspecified)
0.25 to 16 µg/mL (≈ 0.451 to 28.9 µM)	0.25 to 16 µg/mL (≈ 0.451 to 28.9 µM)	0.25 to 16 µg/mL (≈ 0.451 to 28.9 µM)	0.25 to 16 µg/mL (≈ 0.451 to 28.9 µM)	0.25 to 16 µg/mL (≈ 0.451 to 28.9 µM)	0.25 to 16 µg/mL (≈ 0.451 to 28.9 µM)	0.25 to 16 µg/mL (≈ 0.451 to 28.9 µM)	C[C@H](n1nnc(CCN2CCN(c3ccc([N+](=O)[O-])cc3)CC2)n1)[C@](O)(Cn1cncn1)c1ccc(F)cc1F
